Laboratory results: patent publication US20120101157A1, “4,5-Diamino-3-Halo-2-Hydroxybenzoic Acid Derivatives and Preparations Thereof” (NATIONAL DEFENSE MEDICAL CENTER, priority 2010, published 2012)
Values after ≈ are worked out from the molar mass of the structure shown. “Also recorded” adds a separate entry of the source. Where two headings read alike, the source gives them in different places.

Key:
[1] = system: H1N1 virus; test: microbe, parasite or virus in culture; type: cell-based; conditions: for MIC: Influenza A virus, read-out: MIC (minimum inhibitory concentration, cell survival rate >75%); for anti-H1N1 / anti-influenza activity (in words) / SI (selective index=CC50/MIC): H1N1 in MDCK cells
[2] = in vitro; conditions: dog
[3] = system: H5N1; conditions: read-out: EC50 (50% effective concentration); H5N1, according to previous studies; cited from earlier work
[4] = H1N1 at 0.01 MOI in MDCK cells, 48 h, MTT

| Structure (SMILES) | MIC ([1]; H1N1, 48 h) [µg/mL] | CC50 [2] [µg/mL] | EC50 [3] [µM] | anti-H1N1 / anti-influenza activity (in words) [1] | MIC [1, 4] [µg/mL] | melting point [°C] | SI (selective index=CC50/MIC) [1] |
| --- | --- | --- | --- | --- | --- | --- | --- |
| Nc1ccc(C(=O)O)c(O)c1 [PAS, p-aminosalicylic acid, reference compound] | > 100 | > 100 |  |  |  |  |  |
| NC(=O)c1ncn([C@@H]2O[C@H](CO)[C@@H](O)[C@H]2O)n1 [Ribavirin, reference compound] | 1.56 (≈ 6.39 µM) |  | 6 to 22 |  |  |  |  |
| CC(=O)Nc1cc(O)c(C(=O)O)cc1N [compound 6a] |  | > 100 |  | better anti-H1N1 activity; also recorded: effectively inhibit influenza viral activity | 50 (≈ 238 µM) | 295 to 297 |  |
| COC(=O)c1cc(N)c(NC(C)=O)cc1O [compound 6b] |  | > 100 |  | better anti-H1N1 activity; also recorded: effectively inhibit influenza viral activity; also recorded: preferred anti-influenza activity | 1.56 (≈ 6.96 µM) | 204 to 206 |  |
| CCCC(=O)Nc1cc(O)c(C(=O)OCC)cc1N [compound 6e] |  | > 100 |  | better anti-H1N1 activity; also recorded: effectively inhibit influenza viral activity; also recorded: preferred anti-influenza activity | 1.56 (≈ 5.86 µM) | 135 to 137 | >64 |
| COC(=O)c1cc(N)c(NC(C)=O)c(Br)c1O [compound 6f, methyl 4-(acetamido)-5-amino-3-bromo-2-hydroxybenzoate] |  | > 100 |  | better anti-H1N1 activity; also recorded: effectively inhibit influenza viral activity; also recorded: preferred anti-influenza activity | 0.78 (≈ 2.57 µM) | 217 to 219 | >128 |
| CC(=O)Nc1cc(O)c(C(=O)O)cc1NC(=N)N [compound 7a, 4-(acetamido)-5-guanidino-2-hydroxybenzoic acid] |  | > 100 |  | better anti-H1N1 activity; also recorded: effectively inhibit influenza viral activity | 25 (≈ 99.1 µM) | 334 to 357 |  |
| COC(=O)c1cc(NC(=N)N)c(NC(C)=O)cc1O [compound 7b, methyl 4-(acetamido)-5-guanidino-2-hydroxybenzoate] |  | > 100 |  | better anti-H1N1 activity; also recorded: effectively inhibit influenza viral activity | 25 (≈ 93.9 µM) | 233 to 234 |  |
| CCCC(=O)Nc1cc(O)c(C(=O)OCC)cc1NC(=N)N [compound 7e, ethyl 4-(butyramido)-5-guanidino-2-hydroxybenzoate] |  | > 100 |  | no inhibiting activity | > 100 |  |  |
| COC(=O)c1cc(NC(=N)N)c(NC(C)=O)c(Br)c1O [compound 7f, methyl 4-(acetamido)-3-bromo-5-guanidino-2-hydroxybenzoate] |  | > 100 |  | no inhibiting activity | > 100 | 238 to 240 |  |
| CC(=O)Nc1c(N)cc(C(=O)O)c(O)c1Br [compound 8, 4-(acetamido)-5-amino-3-bromo-2-hydroxybenzoic acid] |  | > 100 |  | better anti-H1N1 activity; also recorded: effectively inhibit influenza viral activity; also recorded: preferred anti-influenza activity | 1.56 (≈ 5.4 µM) | 210 to 211 |  |
